Drawing on patent EP0082668A1, “5-(2-Halogenovinyl)-2'-deoxyuridine derivatives, processes for their preparation, pharmaceutical compositions containing them and their use in treating viral infections” (BEECHAM GROUP PLC, priority 1981, dated 1983), this text covers MCC and IC50 for 2 compounds.

Like-named read-outs stand apart in the source and are kept apart here.

The nature of data set [1]: Minimum concentration killing the cell monolayer (MTD), read in the plaque reduction test. Type of data set: cell-based, African Green Monkey. The following applies: monkey, vero cells; minimum concentration which killed the cell monolayer; virus infected Vero cultures, 6 days at 37°C. As to the method:
(§1) Vero (African Green Monkey Kidney) cells were grown to confluence in 6 well multidishes, each well being 3.5 cm in diameter. The cells were incubated with herpes simplex type 1 virus (HFEM strain) and overlaid with 0.5 mL of 0.9% agarose (w/v) in maintenance medium containing the test compound at a range of concentrations from 100 pg/mL in half-log dilution steps. The virus infected cultures were then incubated at 37°C for 6 days before fixing in 4% formaldehyde solution and staining with carbolfuchsin. The dishes were then examined to find the concentration of test compound causing a 50% reduction in the number of virus plaques formed (PDD50 value) and the minimum concentration of test compound which killed the cell monolayer, leaving a clear zone devoid of cells and virus plaques (MTD).
(In general: In a plaque reduction assay, fewer plaques than in the control indicate reduced infectivity or spread.)

Data set [2] has as its system herpes simplex type 1 virus (HFEM strain). Kind of data set: Plaque reduction test in Vero cells infected with herpes simplex type 1 virus. Type of data set: cell-based. The following applies: Human alphaherpesvirus 1, 144 h, concentration causing a 50% reduction in the number of virus plaques, Vero cells, HFEM strain, 6 days at 37°C, read-out: PDD50 (the source's name). On the procedure:
as §1

In data set [1], `CN(C)c1ccc(C(=O)O[C@H]2C[C@H](n3cc(/C=C/Br)c(=O)n(C(=O)c4ccc(N(C)C)cc4)c3=O)O[C@@H]2CO)cc1` [Example 48, E-5-(2-Bromovinyl)-3-N-(p-dimethylaminobenzoyl)-3'-O-(p-dimethylaminobenzoyl)-2'-deoxyuridine] returned an MCC at 144 h of more than 100 µg/mL. Further, the figures for the IC50 in data set [2] (molar) and in data set [2] were 940 nM and 0.47 µg/mL, respectively.

The compound `Cc1ccccc1C(=O)O[C@H]1C[C@H](n2cc(/C=C/Br)c(=O)n(C(=O)c3ccccc3C)c2=O)O[C@@H]1CO` [Example 49] came in with an MCC at 144 h in data set [1] of 100 µg/mL. Further, the IC50 amounted to 1100 nM in data set [2] (molar) and 0.55 µg/mL in data set [2].
